Measured values from patent US20030083250A1, “Anti-tumor chemotherapy by administration of cyclophosphamide and erythropoeitin” (priority 2001, published 2003).
Entries after “also recorded” stand apart in the source; their conditions may differ.

Assays:
[1] = system: Male Sprague-Dawley rats; experiment: Blood cell parameters (automated hematology analyzer) in rats with carboplatin-induced anemia, with or without rHuEPO; assay type: in vivo, rat; conditions: for CHb (hemoglobin concentration): day of cyclophosphamide treatment (Day 5 after tumor implantation), carboplatin 50 mg/kg i.v. on Day -4, rHuEPO 1000 IU/kg s.c. three times per week
Procedure: (§1) Male Sprague-Dawley rats (Charles River Wiga, Sulzfeld, Germany; body weight 100 to 160 g) housed in our animal care facility were used in the study. Animals were allowed access to food and acidified water ad libitum before and throughout the investigation. All experiments had previously been approved by the regional animal ethics committee and were conducted in accordance with the German Law for Animal Protection and the UKCCCR Guidelines [United Kingdom Coordinating Committee on Cancer Research (UKCCCR) guidelines for the welfare of animals in experimental neoplasia (2 nd edit). Br. J. Cancer, (1998) 77:1-10].
(§2) Prolonged anemia was induced by a single injection of carboplatin (Sigma-Aldrich, Steinheim, Germany) at a dose of 50 mg/kg body weight (dissolved in isotonic saline at a concentration of 20 mg/ml) into the tail vein four days before tumor implantation.
(§3) Recombinant human erythropoietin (epoetin alpha, ERYPO 4000®; Janssen-Cilag, Neuss, Germany) in isotonic NaCl solution was administered (1000 IU/kg) three times per week over sixteen days by s.c. injection starting eleven days before tumor implantation. Control animals received equivalent volumes of the solvent (0.5 ml/ kg).
Besides tumor growth, blood cell parameters were assessed using a multi-parameter, automated hematology analyzer (Ac-T8; Beckman-Coulter, Krefeld, Germany) whereby erythrocyte, white blood cell and platelet counts together with the mean cell volume (MCV) were measured by an impedance technique and the hemoglobin concentration by a photometric method. In addition, the analyzer uses the measured values to calculate several other parameters (e.g., hematocrit, mean corpuscular hemoglobin content [MCH] and mean corpuscular hemoglobin concentration [MCHC]). All measurements were performed using a sample of venous blood (20 μl) taken from a tail vein.
(§4) Results are expressed as means±standard error of the mean (SEM). Differences between the groups were assessed by the two-tailed Wilcoxon test for unpaired samples. The significance level was set at α=5% for all comparisons. For characterizing the effect of chemotherapy on tumor growth, the growth delay induced by cyclophosphamide was calculated.

[2] = system: FSaIIC Murine Fibrosarcoma; conditions: experimental sarcomas of mice; cited from earlier work
[3] = system: DS-sarcoma; experiment: Growth of subcutaneous DS-sarcomas in rats (tumor volume, volume doubling time, growth delay after cyclophosphamide); assay type: in vivo, rat; conditions: for volume doubling time / impact on tumor growth rate per se: tumors not treated with cyclophosphamide; for impact on tumor growth rate per se: carboplatin four days before implantation, rHuEPO 1000 IU/kg three times per week; for volume doubling time during the regrowth period: after cyclophosphamide; for growth delay following chemotherapy: at the 1.3 ml tumor volume level, cyclophosphamide 60 mg/kg i.p. Day 5
Procedure: as §1
Solid DS-sarcomas were induced by injecting DS-sarcoma cells (0.4 ml approximately 10^4 cells/μl) subcutaneously into the hind food dorsum. […] Tumor volumes were determined by measuring the three orthogonal diameters of the tumor and using an ellipsoid approximation with the formula: V=d1×d2×d3×π/6. From the volume growth curves the volume doubling time was calculated during exponential tumor growth.
as §2, §3
Animals treated with equivalent volumes of the solvent (isotonic saline 6 ml/kg) served as controls.
Group 1 (non-anemic): Animals received cyclophosphamide on Day 5 after tumor implantation.
Group 2 (anemic): Animals treated for four days before tumor implantation with carboplatin for anemia induction. Cyclophosphamide was administered on Day 5 after implantation.
Group 3 (anemic, rHuEPO-treated): Animals treated with rHuEPO three times per week from eleven days before tumor implantation and up until the day of cyclophosphamide application. Carboplatin (for anemia induction) was administered on Day −4 and cyclophosphamide was applied on Day 5.
Controls for all three experimental groups received equivalent volumes of the solvent instead of cyclophosphamide on Day 5 after tumor implantation.
as §4

[4] = system: experimental tumors; conditions: after correcting anemia; 76% in moderate anemia, 21% before; cited from earlier work
[5] = system: human ovarian cancer xenographs; conditions: EPO alone (control group); cited from earlier work
[6] = system: anemic cancer patients; conditions: 150 IU/kg t.i.w. vs placebo; after the first month of therapy; platinum or non-platinum chemotherapy; cited from earlier work
[7] = system: experimental tumours; conditions: in vivo; cited from earlier work
[8] = day of cyclophosphamide treatment, mean ± SEM

## N.N.O=C([O-])C1(C(=O)[O-])CCC1.[Pt+2] [carboplatin]
[1]; mean ± SEM
  CHb (hemoglobin concentration): 98 g/L
[1]; mean ± SEM, listed as CARBOPLATIN
  CHb (hemoglobin concentration): 98 ± 3 g/L
[1]; [8]
  Hematocrit: 28 ± 1%
  Mean Corpuscular Hb Concentration (MCHC): 348 ± 5 g/L
  Mean Corpuscular Hemoglobin (MCH): 22 ± 1 pg
  Mean Corpuscular Volume (MCV): 63 ± 1 fL
  RBC count: 4.5 ± 0.2 10^6/μl
[1]; nine days after a single dose of carboplatin 50 mg/kg i.v., start approximately 130 g/l
  mean cHb: about 100 g/l
[2]
  cell kill in oxygenated versus hypoxic tumor areas: more pronounced cell kill
[3]
  volume doubling time: approximately 1.8 days
  impact on tumor growth rate per se: does not affect the growth of DS sarcomas; also recorded: no impact per se on the growth rate of the tumors; also recorded: no effect on the growth rate of DS-sarcomas

## O=P1(N(CCCl)CCCl)NCCCO1 (stereo not drawn) [cyclophosphamide]
[2]
  cell kill in oxygenated versus hypoxic tumor areas: more pronounced cell kill
[3]; anemic group
  volume doubling time during the regrowth period: 4.0 days
[3]; non-anemic group
  volume doubling time during the regrowth period: 4.6 days
  growth delay following chemotherapy: approximately 13.3 days
[3]; anemic (carboplatin) group
  growth delay following chemotherapy: 8.6 days
[3]; single dose 60 mg/kg i.p., stated in the methods, not curative
  growth delay: approximately eight to ten

## N[C@@H](Cc1ccc(N(CCCl)CCCl)cc1)C(=O)O [melphalan]
[2]
  cell kill in oxygenated versus hypoxic tumor areas: more pronounced cell kill

## rHuEPO: Recombinant human erythropoietin (epoetin alpha, ERYPO 4000; Janssen-Cilag)
[4]
  fraction of hypoxic pO2 values ≦2.5 mmHg: 55%
[1]; continuous rHuEPO treatment in otherwise untreated rats, within one week
  cHb: 153 g/L
[1]; mean ± SEM
  CHb (hemoglobin concentration): 137 g/L
[1]; rHuEPO for approximately one week prior to carboplatin application
  effect on carboplatin-induced anemia at the time of chemotherapy: prevention (or reversal) of the carboplatin-induced anemia
[5]
  changes in tumor growth: no changes in tumor growth
[3]; DS sarcomas, anemia cHb=98 g/l
  effect of reversing anemia on cytotoxicity of cyclophosphamide chemotherapy: significantly increases the cytotoxicity of this chemotherapy
[3]; rHuEPO-treated animals
  volume doubling time during the regrowth period: 4.3 days
[3]; rHuEPO-treated group (carboplatin + rHuEPO)
  growth delay following chemotherapy: approximately 13.3 days
[3]
  volume doubling time: approximately 1.8 days
  impact on tumor growth rate per se: no impact per se on the growth rate of the tumors; also recorded: no impact on the tumor growth per se
[6]
  effect on hematocrit and transfusion requirements: increase hematocrit and decrease transfusion requirements
[7]
  effect of correction of anemia on radiosensitivity: able to improve the radiosensitivity
